Here are results for four compounds from article PMC5908784, “Extracellular loops 2 and 3 of the calcitonin receptor selectively modify agonist binding and efficacy” (Biochemical Pharmacology, 2018).

Positions count from the first letter of the chain named. Where a SMILES comes first, the peptide text is derived from it. Bridges are numbered along the chain shown (N, C = ends).

Common to all, as to experiment: cAMP accumulation
Format in all cases: cell-based
A general note: Cyclic AMP is a second messenger, typically raised through Gs and lowered through Gi signalling.

The target of assay [1] is T1, hCTR I371A (Homo sapiens, UniProt P30988, I371A).
T1 construct: c-Myc (N); expressed in transfected cells
T1 sequence (P30988 25-474 I371A): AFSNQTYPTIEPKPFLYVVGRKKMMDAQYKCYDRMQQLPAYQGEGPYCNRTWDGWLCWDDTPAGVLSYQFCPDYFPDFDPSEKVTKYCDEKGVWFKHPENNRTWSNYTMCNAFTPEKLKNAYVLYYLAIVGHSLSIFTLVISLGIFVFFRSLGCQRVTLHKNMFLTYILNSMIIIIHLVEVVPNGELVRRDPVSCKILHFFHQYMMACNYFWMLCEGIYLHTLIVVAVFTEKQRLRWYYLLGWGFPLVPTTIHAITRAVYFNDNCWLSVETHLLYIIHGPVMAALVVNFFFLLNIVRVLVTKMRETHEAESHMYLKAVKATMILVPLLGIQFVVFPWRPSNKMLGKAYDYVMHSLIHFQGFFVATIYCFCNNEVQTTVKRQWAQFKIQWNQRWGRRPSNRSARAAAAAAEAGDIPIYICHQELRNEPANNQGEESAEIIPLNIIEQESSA
As to conditions: mean ± S.E.M.; for Emax: cAMP maximal response, SEM; for EC50: cAMP, CV1-FlpIn cells, 30 min, IBMX. How it is done: (§1) Cells (2.5 × 10^4 cells/well) were seeded into 96-well plates and incubated overnight. Cells were stimulated with increasing concentrations of ligands for 30 min in the presence of IBMX. The liquid was discarded, changed to absolute ethanol and volatilized to dryness at room temperature. […] Data were normalized to the response of 100 μM forskolin.
(§2) Data were corrected for radioligand occupancy using the Cheng-Prusoff equation in Prism; as such data are reported as pKi. Emax and EC50 were estimated from concentration-response curves using with a 3-parameter logistic equation in Prism (v7). These values are a composite of functional affinity, efficacy and stimulus response coupling. […] Significance was accepted at P < 0.05.

Assay [2] deals with T2, hCTR V358A (Homo sapiens, UniProt P30988, V358A).
T2 construct: c-Myc (N); expressed in transfected cells
T2 sequence (P30988 25-474 V358A): T1 sequence (P30988 25-474 I371A) with V334A, A347I
As to conditions: mean ± S.E.M.; for Emax: cAMP maximal response, SEM; for EC50: cAMP, CV1-FlpIn cells, 30 min, IBMX. Here is the method:
as §1, §2

Assay [3] deals with T3, hCTR W290A (Homo sapiens, UniProt P30988, W290A).
T3 construct: c-Myc (N); expressed in transfected cells
T3 sequence (P30988 25-474 W290A): T1 sequence (P30988 25-474 I371A) with W266A, A347I
The settings on record: mean ± S.E.M.; for Emax: cAMP maximal response, SEM. How it is done: as §1, §2

Assay [4] addresses T4, hCTR Y299A (Homo sapiens, UniProt P30988, Y299A).
T4 construct: c-Myc (N); expressed in transfected cells
T4 sequence (P30988 25-474 Y299A): T1 sequence (P30988 25-474 I371A) with Y275A, A347I
The settings on record: mean ± S.E.M.; for Emax: cAMP maximal response, SEM; for EC50: cAMP, CV1-FlpIn cells, 30 min, IBMX. Here is the method: as §1, §2

The target of assay [5] is T5, hCTR Y372A (Homo sapiens, UniProt P30988, Y372A).
T5 construct: c-Myc (N); expressed in transfected cells
T5 sequence (P30988 25-474 Y372A): T1 sequence (P30988 25-474 I371A) with A347I, Y348A
As to conditions: mean ± S.E.M.; for Emax: cAMP maximal response, SEM; for EC50: cAMP, CV1-FlpIn cells, 30 min, IBMX. Here is the method:
as §1, §2

For `CC[C@H](C)[C@H](NC(=O)[C@H](C)NC(=O)[C@@H](NC(=O)[C@H](CCC(N)=O)NC(=O)[C@@H]1CCCN1C(=O)[C@H](Cc1ccccc1)NC(=O)[C@@H](NC(=O)[C@H](Cc1c[nH]cn1)NC(=O)[C@H](Cc1ccccc1)NC(=O)[C@H](CCCCN)NC(=O)[C@H](CC(N)=O)NC(=O)[C@H](Cc1ccccc1)NC(=O)[C@H](CC(=O)O)NC(=O)[C@H](CCC(N)=O)NC(=O)[C@@H](NC(=O)[C@H](Cc1ccc(O)cc1)NC(=O)[C@@H](NC(=O)CNC(=O)[C@H](CC(C)C)NC(=O)[C@H](CCSC)NC(=O)[C@@H]1CSSC[C@H](N)C(=O)NCC(=O)N[C@@H](CC(N)=O)C(=O)N[C@@H](CC(C)C)C(=O)N[C@@H](CO)C(=O)N[C@@H]([C@@H](C)O)C(=O)N1)[C@@H](C)O)[C@@H](C)O)[C@@H](C)O)[C@@H](C)O)C(=O)NCC(=O)N[C@H](C(=O)NCC(=O)N[C@@H](C)C(=O)N1CCC[C@H]1C(N)=O)C(C)C` [hCT], the Emax was 24 ± 2.7% in assay [1]; 98 ± 4% in assay [2]; 164 ± 20% in assay [3]; 133 ± 9% in assay [4]; 149 ± 12% in assay [5].

As for `CC(C)C[C@H](NC(=O)CNC(=O)[C@H](C)NC(=O)[C@H](CC(C)C)NC(=O)[C@H](CCCNC(=N)N)NC(=O)[C@H](Cc1cnc[nH]1)NC(=O)[C@@H](NC(=O)[C@@H](NC(=O)[C@@H]1CSSC[C@H](NC(=O)[C@H](C)N)C(=O)N[C@@H](CC(=O)O)C(=O)N[C@@H]([C@@H](C)O)C(=O)N[C@@H](C)C(=O)N[C@@H]([C@@H](C)O)C(=O)N1)C(C)C)[C@@H](C)O)C(=O)N[C@@H](CC(C)C)C(=O)N[C@@H](CO)C(=O)N[C@@H](CCCNC(=N)N)C(=O)N[C@@H](CO)C(=O)NCC(=O)NCC(=O)N[C@H](C(=O)N[C@H](C(=O)N[C@@H](CCCCN)C(=O)N[C@@H](CC(N)=O)C(=O)N[C@@H](CC(N)=O)C(=O)N[C@@H](Cc1ccccc1)C(=O)N[C@H](C(=O)N1CCC[C@H]1C(=O)N[C@H](C(=O)N[C@@H](CC(N)=O)C(=O)N[C@H](C(=O)NCC(=O)N[C@@H](CO)C(=O)N[C@@H](CCCCN)C(=O)N[C@@H](C)C(=O)N[C@@H](Cc1ccccc1)C(N)=O)C(C)C)[C@@H](C)O)C(C)C)C(C)C)C(C)C` [hαCGRP], the Emax turned out to be 58 ± 15% in assay [1], 74 ± 9% in assay [2], 62 ± 16% in assay [4] and 36 ± 8% in assay [5]. For the same compound, the EC50 in assay [1] was 132 nM; in assay [2], 20.9 nM; in assay [4], 33.1 nM; in assay [5], 123 nM.

As for `CSCC[C@H](NC(=O)CNC(=O)[C@H](CO)NC(=O)[C@H](Cc1ccccc1)NC(=O)[C@H](CCCNC(=N)N)NC(=O)[C@H](Cc1c[nH]cn1)NC(=O)[C@H](Cc1ccccc1)NC(=O)[C@H](CC(N)=O)NC(=O)[C@H](CC(N)=O)NC(=O)[C@H](CC(C)C)NC(=O)[C@H](CC(N)=O)NC(=O)[C@H](CCCNC(=N)N)NC(=O)[C@H](Cc1c[nH]c2ccccc12)NC(=O)[C@H](Cc1ccc(O)cc1)NC(=O)[C@H](C)NC(=O)[C@H](CO)NC(=O)[C@H](CC(C)C)NC(=O)[C@@H](NC(=O)[C@@H]1CSSC[C@H](N)C(=O)N[C@@H](CO)C(=O)N[C@@H](CC(N)=O)C(=O)N[C@@H](CC(C)C)C(=O)N[C@@H](CO)C(=O)N[C@@H]([C@@H](C)O)C(=O)N1)C(C)C)C(=O)NCC(=O)N[C@@H](Cc1ccccc1)C(=O)NCC(=O)N1CCC[C@H]1C(=O)N[C@@H](CCC(=O)O)C(=O)N[C@H](C(=O)N1CCC[C@H]1C(N)=O)[C@@H](C)O` [pCT] (H-CSNLSTCVLSAYWRNLNNFHRFSGMGFGPETP-NH2; disulfide 1-7), the Emax in assay [1] is 35 ± 5%; in assay [2], 140 ± 15%; in assay [3], 113 ± 12%; in assay [4], 117 ± 9%; in assay [5] it was 137 ± 13%. Besides, the EC50 in assay [1] was 0.0794 nM; in assay [2], 0.0316 nM; in assay [3] (cAMP, CV1-FlpIn cells, 30 min, IBMX), 3.31 nM; in assay [4], 0.135 nM; in assay [5], 1.15 nM.

Regarding `CC(C)C[C@H](NC(=O)[C@H](CC(N)=O)NC(=O)[C@H](CC(N)=O)NC(=O)[C@H](CO)NC(=O)[C@H](CO)NC(=O)[C@H](CCCNC(=N)N)NC(=O)[C@@H](NC(=O)[C@H](CC(C)C)NC(=O)[C@H](Cc1ccccc1)NC(=O)[C@H](CC(N)=O)NC(=O)[C@H](C)NC(=O)[C@H](CC(C)C)NC(=O)[C@H](CCCNC(=N)N)NC(=O)[C@H](CCC(N)=O)NC(=O)[C@@H](NC(=O)[C@H](C)NC(=O)[C@@H]1CSSC[C@H](NC(=O)[C@@H](N)CCCCN)C(=O)N[C@@H](CC(N)=O)C(=O)N[C@@H]([C@@H](C)O)C(=O)N[C@@H](C)C(=O)N[C@@H]([C@@H](C)O)C(=O)N1)[C@@H](C)O)C(C)C)C(=O)NCC(=O)N1CCC[C@H]1C(=O)N[C@H](C(=O)N[C@@H](CC(C)C)C(=O)N1CCC[C@H]1C(=O)N1CCC[C@H]1C(=O)N[C@H](C(=O)N[C@@H](CC(N)=O)C(=O)N[C@H](C(=O)NCC(=O)N[C@@H](CO)C(=O)N[C@@H](CC(N)=O)C(=O)N[C@H](C(=O)N[C@@H](Cc1ccc(O)cc1)C(N)=O)[C@@H](C)O)C(C)C)[C@@H](C)O)C(C)C` [rAmy], the Emax in assay [1] came to 47 ± 7%; in assay [2], 94 ± 13%; in assay [3], 72 ± 26%; in assay [4] it was 102 ± 1%; in assay [5], 170 ± 26%.

The term Emax denotes the size of the effect at its maximum, as opposed to the concentration needed. Usually EC50 stands for the concentration needed to bring the measured effect to its halfway point.
